In PMC7018972, “Novel and selective inactivators of Triosephosphate isomerase with anti-trematode activity” (Scientific Reports, 2020):

biological target: Fasciola hepatica TIM (FhTIM) (Fasciola hepatica, UniProt S4UI50); assay: Inhibition of recombinant FhTIM, coupled enzyme assay; format: biochemical; conditions: not given
Protocol: Expression and purification of proteins: FhTIM, RabbitTIM and HsTIM were expressed in Escherichia coli and purified as described in the literature[31],[37]. […] Before use, extensive dialysis against 100 mM triethanolamine/10 mM EDTA (pH 7.4) was performed. […] Enzymatic activity was determined following the conversion of glyceraldehydes-3-phosphate into dihydroxyacetone phosphate in a coupled enzyme assay. The decrease in absorbance at 340 nm was followed in a multiplate reader VarioskanTM Flash Multimode Reader (Thermo ScientificTM, Waltham, MA, USA) at 38 °C. The reaction mixture (1 mL, pH 7.4) contained 100 mM triethanolamine, 10 mM EDTA, 0.2 mM NADH, 1 mM glyceraldehydes-3-phosphate and 0.9 units of α-glycerol phosphate dehydrogenase. The reaction was initiated by the addition of 5 ng/mL of the TIM of interest. For the inhibition studies, TIM was incubated at a concentration of 5 mg/mL in a buffer containing 100 mM triethanolamine, 10 mM EDTA, pH 7.4 and 10% of DMSO at 37 °C for 1 h. The mixture also contained the compounds, dissolved in DMSO, at the indicated concentrations. After 1 h, 10 µL were withdrawn and added to a final volume of 100 µL of the reaction mixture for the activity assay. The inhibition assay was performed in a 96-well microplate. […] The experiments were performed in triplicate in two independent experiments.

Chain of Fasciola hepatica TIM (FhTIM) (S4UI50 entry or part of it): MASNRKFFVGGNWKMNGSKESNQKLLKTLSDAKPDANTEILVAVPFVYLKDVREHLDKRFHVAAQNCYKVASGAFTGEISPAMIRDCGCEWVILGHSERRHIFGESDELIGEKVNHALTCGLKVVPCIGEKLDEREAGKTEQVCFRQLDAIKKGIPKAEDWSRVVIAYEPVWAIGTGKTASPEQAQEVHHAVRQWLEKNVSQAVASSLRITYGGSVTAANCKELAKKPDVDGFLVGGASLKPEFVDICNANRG

| FhTIM inhibition in words | Structure (SMILES) |
| --- | --- |
| non-inhibitor | Cc1ccc(-c2nsc(=O)[nH]2)cc1 [Compound 191] |

same assay, conditions: Table 1S, screening of 340 compounds in FhTIM; table head prints no unit, µM per b8/b9

| Structure (SMILES) | IC50 [µM] |
| --- | --- |
| Clc1ccc(-c2c[se]c(=NN=CC=Cc3ccco3)n2CCN2CCOCC2)cc1 [Compound 1097] | 50 to 100 |

same assay, conditions: Table 1S, screening of 340 compounds in FhTIM; table head prints no unit, µM per b8/b9; read-out: IC50

| Structure (SMILES) | IC50 [µM] |
| --- | --- |
| O=C(C=CC=Cc1ccccc1)C=CC=Cc1ccccc1 [Compound 797] | > 100 |
| C(=CC=NN=c1scc(-c2ccccc2)n1-c1ccccc1)C=Cc1ccco1 [Compound 814] | > 100 |
| C=CCn1c(C)csc1=NN=Cc1cccs1 [Compound 274] | 50 to 100 |
| C=CCn1c(-c2ccc([N+](=O)[O-])cc2)csc1=NN=Cc1ccc([N+](=O)[O-])s1 [Compound 146] | > 100 |
| Cc1ccc(C=CC=NN2CCN(CC=Cc3ccccc3)CC2)o1 [Compound 903] | > 100 |
| COc1ccc(CNCC(=O)O)cc1 [Compound 659] | > 100 |
| C=CCn1c(-c2ccc(Br)cc2)csc1=NN=C(C)C1CCC2C3CC=C4CC(O)CCC4(C)C3CCC12C (centres unmarked) [Compound 1272] | > 100 |
| C=CCNC(=S)NN=Cc1ccc2ccccc2c1 [Compound 296] | > 100 |
| C=CCn1c(-c2ccccc2)csc1=NN=Cc1ccc2ccccc2c1 [Compound 908] | 50 to 100 |
| Cc1csc(=NN=Cc2cccs2)n1-c1ccccc1 [Compound 1103] | > 100 |
| C=CCNC(=S)NN=Cc1cncc(Br)c1 [Compound 307] | > 100 |
| CC1(C)[N+]([O-])=c2ccc(Cl)cc2=[N+]1[O-] [Compound 532] | 50 to 100 |
| S=C(NN=C/C=C/c1ccco1)Nc1ccccc1 [Compound 277] | > 100 |
| Cc1nnc[n+]([O-])c1C=Cc1ccc2c(c1)OCO2 [Compound 216] | > 100 |
| C=CCN(C(C)=O)C1=NN(C(C)=O)C(C=Cc2ccco2)S1 (centres unmarked) [Compound 285] | > 100 |
| C(=Cc1ccccc1)CCN1CCN(CCC=Cc2ccccc2)CC1 [Compound 1119] | > 100 |
| CN1CC(=Cc2ccccc2)C(=O)C(=Cc2ccccc2)C1 [Compound 357] | > 100 |

| Structure (SMILES) | IC50 [µM] |
| --- | --- |
| C=CCN(C(C)=O)C1=NNC(c2cccs2)S1 (centres unmarked) [Compound 286] | > 100 |
| C=CCn1c(C)csc1=NN=Cc1ccco1 [Compound 1110] | > 100 |
| O=[N+]([O-])c1ccc2c(c1)c(O)nn2CCOCCN1CCSCC1 [Compound 642] | > 100 |
| O=C(CBr)c1csc(=NN=Cc2ccccc2)n1-c1ccccc1 [Compound 775] | > 100 |
| C=CCN1C(=O)CSC1=NN=C(C)[C@H]1CC[C@H]2[C@@H]3CC=C4CC(O)CC[C@]4(C)[C@H]3CC[C@]12C (some centres unmarked) [Compound 1125] | > 100 |
| CC(/C=N/N1CCSCC1)=C\c1ccco1 [Compound 878] | 50 to 100 |
| N#Cc1c2ccccc2[n+]([O-])n1-c1ccc2ccccc2c1 [Compound 202] | > 100 |
| NC1=NS(=O)(=O)N=C(N)C1 [Compound 126] | 100 |
| O=C1C(=CC=Cc2ccccc2)CCCC1=CC=Cc1ccccc1 [Compound 800] | > 100 |
| C=CCn1c(C)csc1=NN=Cc1ccc([N+](=O)[O-])s1 [Compound 143] | 50 to 100 |
| CCOC(=O)c1n(Cc2ccc(N(C)C)cc2)c2ccc([N+](=O)[O-])cc2[n+]1[O-] [Compound 553] | > 100 |
| Cc1nnc[n+]([O-])c1/C=C/c1ccc(Cl)cc1 [Compound 211] | > 100 |
| O=C(O)c1ccc(C=CCN2C(=O)c3ccccc3C2=O)cc1 (mixture of isomers) [Compound 617] | > 100 |
| NC1=NS(=O)(=O)N=C(N)C1N [Compound 723] | > 100 |
| C=CCn1c(C)csc1=NN=Cc1ccc2ccccc2c1 [Compound 904] | > 100 |
| Nc1nc(-c2ccc([N+](=O)[O-])cc2)cs1 [Compound 1098] | > 100 |
| [O-][n+]1onc2ccccc21 [Compound 1197] | > 100 |

Second part, the compound after the results:

| IC50 [µM] | Structure (SMILES) |
| --- | --- |
| 100 | Cc1nnc[n+]([O-])c1/C=C/c1ccc([N+](=O)[O-])s1 [Compound 361] |
| > 100 | O=C1CC(=O)N(CCc2ccccc2)S(=O)(=O)N1CCc1ccccc1 [Compound 127] |
| > 100 | C=CCNC(=S)NN=Cc1ccc(O)cc1 [Compound 291] |
| > 100 | O=C(C=CC=Cc1cccs1)C=CC=Cc1cccs1 [Compound 798] |
| > 100 | CCCCOC(=O)c1nc2ccc([N+](=O)[O-])cc2n1O [Compound 550] |
| > 100 | CC(=O)Nc1ccc(C#N)cc1 [Compound 1104] |
| > 100 | O=C1CCCC2=C1C(c1cccc(Br)c1)c1ccc3ccccc3c1N2 (centres unmarked) [Compound 699] |
| > 100 | COc1nn(CCOCCI)c2ccc([N+](=O)[O-])cc12 [Compound 514] |
| > 100 | O=C1C(=CC=Cc2cccs2)CCCC1=CC=Cc1cccs1 [Compound 1245] |
| > 100 | [O-][n+]1onc2ncc(Cl)cc21 [Compound 671] |
| > 100 | C=CCNC(=S)NN=Cc1ccc(C)o1 [Compound 788] |
| > 100 | C(=Cc1ccco1)C=NN1CCN(Cc2ccccc2)CC1 [Compound 874] |
| > 100 | CN(C/C=C/c1ccccc1)CCOCCn1nc(OCc2ccccc2)c2cc([N+](=O)[O-])ccc21 [Compound 508] |
| > 100 | CN1CC(=Cc2ccc(S(=O)(=O)O)o2)C(=O)C(=Cc2ccc(S(=O)(=O)O)o2)C1 [Compound 1286] |
| > 100 | O=C1C(=Cc2ccc([N+](=O)[O-])s2)C(=O)N(C2CCCCC2)S(=O)(=O)N1C1CCCCC1 [Compound 113] |
| > 100 | CNc1ccc(C)cc1[N+](=O)[O-] [Compound 651] |
| > 100 | O=C(C=Cc1cccc2ccccc12)c1ccccc1O [Compound 1269] |
| > 100 | CCCCNC(=O)NN=Cc1no[n+]([O-])c1C [Compound 175] |
| > 100 | C=CCn1c(-c2csc(=NN=CC=Cc3ccccc3)n2-c2ccccc2)csc1=NN=CC=Cc1ccco1 [Compound 791] |
| > 100 | COc1nn(CCOCCN(C)C)c2ccc([N+](=O)[O-])cc12 [Compound 474] |
| 50 to 100 | C=CCn1c(-c2ccc(Br)cc2)csc1=NN=C/C=C/c1cccs1 [Compound 1137] |
| > 100 | Cc1ccc(-c2nsc(=O)[nH]2)cc1 [Compound 191] |
| > 100 | NC1=NS(=O)(=O)N=C(N)C1=Cc1ccc([N+](=O)[O-])o1 [Compound 117] |
| > 100 | N#Cc1c2ccccc2[n+]([O-])n1C/C=C/c1ccccc1 [Compound 500] |
| > 100 | O=[N+]([O-])c1ccc2c(c1)c(O)nn2CCOCCN1CCCCC1 [Compound 459] |
| > 100 | Oc1ccccc1CN1N=Cc2ccccc2OB1F [Compound 1198] |
| > 100 | [O-][n+]1onc(-c2ccccc2)c1CN1CCOCC1 [Compound 352] |

| IC50 [µM] | Structure (SMILES) |
| --- | --- |
| > 100 | O=c1c2cc([N+](=O)[O-])ccc2n2n1CCCCC2 [Compound 637] |
| 50 to 100 | C=CCn1c(-c2ccc(Cl)cc2)csc1=NN=C/C=C/C=C/c1cccs1 [Compound 311] |
| > 100 | Cc1c(CNc2cccc3ccccc23)no[n+]1[O-] [Compound 172] |
| > 100 | C(=Cc1ccco1)C=NN=CC=Cc1ccco1 [Compound 1140] |
| > 100 | S=C(NN=Cc1cccs1)Nc1ccccc1 [Compound 279] |
| > 100 | NNC(=O)Nc1ccc(Cl)cc1 [Compound 397] |
| > 100 | CC(C)OC(CC[P+](c1ccccc1)(c1ccccc1)c1ccccc1)OC(C)C [Compound 497] |
| > 100 | O=C(C(O)c1ccccc1)C(O)c1ccccc1 (centres unmarked) [Compound 1083] |
| 50 to 100 | C=CCN1C(=O)C(CC(=O)O)SC1=NN=Cc1cccs1 (centres unmarked) [Compound 1139] |
| > 100 | O=C1CCCC2=C1C(c1ccc(C(=O)O)cc1)c1ccc3ccccc3c1N2 (centres unmarked) [Compound 698] |
| > 100 | N#Cc1c2ccccc2[n+]([O-])n1CCCl [Compound 483] |
| > 100 | CC(=O)Nc1ccc(C=NO)cc1 [Compound 1106] |
| > 100 | C=CCN1C(=O)CSC1=NN=CC=Cc1cccs1 [Compound 1138] |
| > 100 | C=CCn1c(C(=O)N2CCN(C)CC2)csc1=NN=C/C=C/c1ccco1 [Compound 1093] |
| > 100 | C=CCn1c(C(=O)O)csc1=NN=C/C=C/c1ccc(C)o1 [Compound 789] |
| > 100 | C=CCNC(=S)NN=Cc1ccc(Cl)cc1 [Compound 261] |
| > 100 | Nc1ccc2c(c1)[n+]([O-])c1cc(Cl)ccc1[n+]2[O-] [Compound 184] |
| 50 to 100 | Cc1c(CNc2ccc3ccccc3c2)no[n+]1[O-] [Compound 173] |
| > 100 | C=CCn1c(-c2ccccc2)csc1=NN=CC=Cc1ccco1 [Compound 276] |
| 100 | O=C(/C=C/c1ccco1)c1ccccc1O [Compound 881] |
| > 100 | O=[N+]([O-])c1ccc(C=NN=c2scc(-c3ccccc3)n2-c2ccccc2)s1 [Compound 268] |
| 50 to 100 | NC(N)=N/N=C/c1ccc(O)cc1 [Compound 675] |
| > 100 | O=C(O)c1csc(=NN=CC=CC=Cc2cccs2)n1-c1ccccc1 [Compound 1136] |
| 100 | O=[N+]([O-])c1ccc2c(c1)c(OCc1ccccc1)nn2CCCCCBr [Compound 518] |
| > 100 | NS(=O)(=O)NCc1ccccc1 [Compound 124] |
| > 100 | C=CCn1c(-c2ccc(Cl)cc2)csc1=NN=CC=Cc1ccc(C)o1 [Compound 872] |
